Tests used:
morningglory = test: Test B pre/postemergence morningglory; type: in vivo, Ipomoea hederacea
Method in brief: (§1)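 Herbicidal effect was estimated by eye on a ten-point control scale after plants spent twelve to sixteen days in a greenhouse following soil or foliar treatment. Foliar sprays targeted plants at one to four leaves; all doses were formulated in a non-phytotoxic solvent with surfactant.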

soybean = test: Test B pre/postemergence soybean; type: in vivo, Glycine max
Method in brief: as §1

bedstraw = test: Test B pre/postemergence bedstraw; type: in vivo, Galium aparine; details: Preemergence, Rate 62 g/ha; scale 0 to 10 (0 no effect, 10 complete control)
Method in brief: as §1

velvetleaf = test: Test B pre/postemergence velvetleaf; type: in vivo, Abutilon theophrasti
Method in brief: as §1

cocklebur = test: Test B pre/postemergence cocklebur; type: in vivo, Xanthium strumarium
Method in brief: as §1

rice = test: Test B flood test rice; type: in vivo, Oryza sativa
Method in brief: (§2)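 Read-out is a visual response score from 0 (no effect) to 10 (complete control), assigned by comparison with untreated controls. Treatment was applied at the 2-leaf stage, and plants stayed in the greenhouse for twelve to sixteen days before scoring.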

surinam grass = test: Test B pre/postemergence surinam grass; type: in vivo, Brachiaria decumbens
Method in brief: as §1

blackgrass = test: Test B pre/postemergence blackgrass; type: in vivo, Alopecurus myosuroides
Method in brief: as §1

corn = test: Test B pre/postemergence corn; type: in vivo, Zea mays
Method in brief: as §1

rape = test: Test B pre/postemergence rape; type: in vivo, Brassica napus
Method in brief: as §1

bamyardgrass = test: Test B flood test barnyardgrass; type: in vivo, Echinochloa crus-galli
Method in brief: as §2

smallflower flatsedge = test: Test B flood test smallflower flatsedge; type: in vivo, Cyperus difformis
Method in brief: as §2

purple nutsedge = test: Test B pre/postemergence purple nutsedge; type: in vivo, Cyperus rotundus
Method in brief: as §1

wild oat = test: Test B pre/postemergence wild oat; type: in vivo, Avena fatua
Method in brief: as §1

pigweed = test: Test B pre/postemergence pigweed; type: in vivo, Amaranthus retroflexus
Method in brief: as §1

sugar beet = test: Test B pre/postemergence sugar beet; type: in vivo, Beta vulgaris
Method in brief: as §1

[1] = Postemergence, Rate 250 g/ha, scale 0 to 10
[2] = Postemergence, Rate 500 g/ha, scale of 0 to 10 where 0 is no effect and 10 is complete control
[3] = Preemergence, Rate 62 g/ha, scale 0 to 10 (0 no effect, 10 complete control)
[4] = Preemergence, Rate 125 g/ha, scale of 0 to 10 where 0 is no effect and 10 is complete control
[5] = Preemergence, Rate 250 g/ha, scale 0 to 10, 0 is no effect, 10 is complete control
[6] = Preemergence, Rate 500 g/ha, scale 0 to 10, 0 is no effect, 10 is complete control
[7] = Rate 125 g/ha, Postemergence, scale 0 to 10, 0 is no effect, 10 is complete control
[8] = Rate 62 g/ha, Postemergence, scale of 0 to 10 where 0 is no effect and 10 is complete control
[9] = Postemergence block (flood test species), Rate 250 g/ha, scale 0 to 10
[10] = Postemergence section (flood test species), Rate 500 g/ha, scale of 0 to 10 where 0 is no effect and 10 is complete control
[11] = Rate 125 g/ha, Postemergence section (flood test species), scale 0 to 10, 0 is no effect, 10 is complete control

`CC(C)N(C(=O)n1oc(=O)n(CC#N)c1=O)c1ccc(F)cc1F` [Compound 431] was tested. Which “Morningglory plant response rating” value (morningglory; [1]) did it give?
The value was 1.

And the “Morningglory plant response rating” value (morningglory; [2])?
The value was 2.

What about the “Plant response rating, Morningglory” value (morningglory; [3]) of the same compound?
The value was 0.

And the “Plant response rating, Morningglory” value (morningglory; [4])?
The value was 0.

And the “Morningglory plant response rating” value (morningglory; [5])?
Its value is 0.

What about the “Morningglory plant response rating” value (morningglory; [6]) of the same compound?
The value was 0.

And the “Morningglory plant response rating” value (morningglory; [7])?
The value was 1.

And the “Soybean plant response rating” value (soybean; [1])?
The value was 1.

And the “Soybean plant response rating” value (soybean; [2])?
The value was 2.

What about the “Plant response rating, Soybean” value (soybean; [3]) of the same compound?
Its value is 0.

And the “Plant response rating, Soybean” value (soybean; [4])?
The value was 0.

What about the “Soybean plant response rating” value (soybean; [5]) of the same compound?
The value was 0.

And the “Soybean plant response rating” value (soybean; [6])?
The value was 0.

What about the “Soybean plant response rating” value (soybean; [7]) of the same compound?
Its value is 1.

What about the “Plant response rating, Bedstraw” value (bedstraw) of the same compound?
Its value is 0.

And the “Velvetleaf plant response rating” value (velvetleaf; [1])?
Its value is 0.

And the “Velvetleaf plant response rating” value (velvetleaf; [2])?
Its value is 2.

And the “Plant response rating, Velvetleaf” value (velvetleaf; [3])?
Its value is 0.

What about the “Plant response rating, Velvetleaf” value (velvetleaf; [4]) of the same compound?
The value was 0.

And the “Velvetleaf plant response rating” value (velvetleaf; [5])?
Its value is 0.

And the “Velvetleaf plant response rating” value (velvetleaf; [6])?
The value was 0.

And the “Velvetleaf plant response rating” value (velvetleaf; [7])?
The value was 0.

What about the “Cocklebur plant response rating” value (cocklebur; [1]) of the same compound?
Its value is 0.

What about the “Cocklebur plant response rating” value (cocklebur; [2]) of the same compound?
The value was 0.

And the “Plant response rating, Cocklebur” value (cocklebur; [3])?
The value was 0.

And the “Plant response rating, Cocklebur” value (cocklebur; [4])?
Its value is 0.

What about the “Cocklebur plant response rating” value (cocklebur; [5]) of the same compound?
The value was 0.

And the “Cocklebur plant response rating” value (cocklebur; [8])?
Its value is 0.

What about the “Cocklebur plant response rating” value (cocklebur; [7]) of the same compound?
Its value is 0.

And the “Rice plant response rating” value (rice; [9])?
Its value is 0.

What about the “Rice plant response rating” value (rice; [10]) of the same compound?
Its value is 0.

And the “Rice plant response rating” value (rice; [11])?
The value was 0.

And the “B. signalgrass plant response rating” value (surinam grass; Postemergence, Rate 250 g/ha, scale 0 to 10, 0 no effect, 10 complete control)?
Its value is 0.

And the “B. signalgrass plant response rating” value (surinam grass; [2])?
Its value is 2.

And the “Plant response rating, B. signalgrass” value (surinam grass; [3])?
Its value is 0.

And the “Plant response rating, B. signalgrass” value (surinam grass; [4])?
Its value is 0.

And the “B. signalgrass plant response rating” value (surinam grass; [5])?
Its value is 0.

What about the “B. signalgrass plant response rating” value (surinam grass; [6]) of the same compound?
Its value is 0.

And the “B. signalgrass plant response rating” value (surinam grass; [8])?
The value was 0.

And the “B. signalgrass plant response rating” value (surinam grass; [7])?
Its value is 0.

What about the “Blackgrass plant response rating” value (blackgrass; [1]) of the same compound?
The value was 2.

What about the “Blackgrass plant response rating” value (blackgrass; [2]) of the same compound?
The value was 5.

What about the “Plant response rating, Blackgrass” value (blackgrass; [3]) of the same compound?
Its value is 0.

What about the “Plant response rating, Blackgrass” value (blackgrass; [4]) of the same compound?
Its value is 0.

And the “Blackgrass plant response rating” value (blackgrass; [5])?
The value was 0.

What about the “Blackgrass plant response rating” value (blackgrass; [6]) of the same compound?
Its value is 3.

And the “Blackgrass plant response rating” value (blackgrass; [8])?
Its value is 0.

And the “Blackgrass plant response rating” value (blackgrass; [7])?
The value was 0.

What about the “Corn plant response rating” value (corn; [1]) of the same compound?
Its value is 0.

What about the “Corn plant response rating” value (corn; [2]) of the same compound?
The value was 0.

What about the “Plant response rating, Corn” value (corn; [3]) of the same compound?
Its value is 0.

And the “Plant response rating, Corn” value (corn; [4])?
The value was 0.

What about the “Corn plant response rating” value (corn; [5]) of the same compound?
Its value is 0.

And the “Corn plant response rating” value (corn; [6])?
Its value is 0.

What about the “Corn plant response rating” value (corn; [8]) of the same compound?
Its value is 0.

What about the “Corn plant response rating” value (corn; [7]) of the same compound?
Its value is 0.

What about the “Rape plant response rating” value (rape; [1]) of the same compound?
The value was 0.

What about the “Rape plant response rating” value (rape; [2]) of the same compound?
Its value is 0.

And the “Plant response rating, Rape” value (rape; [3])?
The value was 0.

What about the “Plant response rating, Rape” value (rape; [4]) of the same compound?
Its value is 0.

And the “Rape plant response rating” value (rape; [5])?
Its value is 0.

And the “Rape plant response rating” value (rape; [6])?
The value was 3.

What about the “Rape plant response rating” value (rape; [7]) of the same compound?
Its value is 0.

What about the “Barnyardgrass plant response rating” value (bamyardgrass; [9]) of the same compound?
The value was 0.

What about the “Barnyardgrass plant response rating” value (bamyardgrass; [10]) of the same compound?
The value was 0.

And the “Barnyardgrass plant response rating” value (bamyardgrass; Rate 62 g/ha, Postemergence (flood test species), scale of 0 to 10 where 0 is no effect and 10 is complete control)?
The value was 0.

And the “Barnyardgrass plant response rating” value (bamyardgrass; [11])?
The value was 0.

And the “S. Flatsedge plant response rating” value (smallflower flatsedge; [9])?
The value was 0.

What about the “S. Flatsedge plant response rating” value (smallflower flatsedge; [10]) of the same compound?
Its value is 0.

What about the “S. Flatsedge plant response rating” value (smallflower flatsedge; [11]) of the same compound?
Its value is 0.

And the “Nutsedge plant response rating” value (purple nutsedge; [1])?
Its value is 0.

And the “Nutsedge plant response rating” value (purple nutsedge; [2])?
The value was 0.

What about the “Plant response rating, Nutsedge” value (purple nutsedge; [3]) of the same compound?
Its value is 0.

What about the “Plant response rating, Nutsedge” value (purple nutsedge; [4]) of the same compound?
The value was 0.

And the “Nutsedge plant response rating” value (purple nutsedge; [5])?
The value was 0.

And the “Nutsedge plant response rating” value (purple nutsedge; [6])?
The value was 0.

What about the “Nutsedge plant response rating” value (purple nutsedge; [7]) of the same compound?
The value was 0.

And the “Wild oats plant response rating” value (wild oat; [1])?
Its value is 0.

And the “Wild oats plant response rating” value (wild oat; [2])?
The value was 0.

And the “Plant response rating, Wild oats” value (wild oat; [3])?
Its value is 0.

And the “Plant response rating, Wild oats” value (wild oat; [4])?
The value was 0.

What about the “Wild oats plant response rating” value (wild oat; [5]) of the same compound?
Its value is 2.

What about the “Wild oats plant response rating” value (wild oat; [6]) of the same compound?
The value was 2.

And the “Wild oats plant response rating” value (wild oat; [7])?
The value was 0.

What about the “Redroot pigweed plant response rating” value (pigweed; [1]) of the same compound?
The value was 0.

What about the “Redroot pigweed plant response rating” value (pigweed; [2]) of the same compound?
The value was 0.

What about the “Plant response rating, Redroot pigweed” value (pigweed; [3]) of the same compound?
Its value is 0.

What about the “Plant response rating, Redroot pigweed” value (pigweed; [4]) of the same compound?
Its value is 0.

And the “Redroot pigweed plant response rating” value (pigweed; [5])?
The value was 0.

And the “Redroot pigweed plant response rating” value (pigweed; [6])?
Its value is 0.

What about the “Redroot pigweed plant response rating” value (pigweed; [7]) of the same compound?
The value was 0.

What about the “Sugarbeets plant response rating” value (sugar beet; [1]) of the same compound?
The value was 0.

And the “Sugarbeets plant response rating” value (sugar beet; [2])?
Its value is 0.

What about the “Plant response rating, Sugarbeets” value (sugar beet; [3]) of the same compound?
Its value is 0.

And the “Plant response rating, Sugarbeets” value (sugar beet; [4])?
Its value is 0.

What about the “Sugarbeets plant response rating” value (sugar beet; [5]) of the same compound?
The value was 0.

What about the “Sugarbeets plant response rating” value (sugar beet; [6]) of the same compound?
Its value is 0.

And the “Sugarbeets plant response rating” value (sugar beet; [7])?
The value was 0.
